Measurements published in publication PMC12320299 (Chemical Science, 2025).

Experiments:
[1] = system: HCT116 TP53-knockout (TP53KO) cell line; assay: MTT viability assay, HCT116 TP53-knockout, 96 h; type: cell-based, human
Experimental: removed and 100 µL DMSO was added to dissolve the formazan crystals. Photometric quantification was performed at 570 nm with a Multiskan Go 1510 photometer (Thermo Fisher […]
The absorbances were blank corrected and converted to relative proliferation. The IC50 values (concentration of 50% growth inhibition) were obtained using a sigmoidal fit of the experimental data and calculated as the mean ± standard deviation of at least three independent experiments, each in at least triplicates.
HCT116, HCT116 p53KO (each 2.000 cells/well) and CT-26 cells (500 cells/well) were seeded in 100 µL/well into flat-bottom 96-well plates (Starlab) and incubated at 37 °C for 96 h in a humidified incubator (Binder CB210) at 5% CO2. The test compound was dissolved in DMSO, serially diluted in the appropriate cell culture medium (see section above) to final DMSO concentrations of ≤0.5% v/v and 100 µL aliquots added to wells in triplicates. […] Optical densities were measured with a microplate reader (ELx808, Biotek) at a wavelength of 550 nm (and a reference wavelength of 690 nm) and blank corrected. […]
(each 3.000 cells/well) were seeded in 100 µL/well into flat-bottom 96-well plates (Starlab) and incubated at 37 °C for 24 h in a humidified incubator (Binder CB210) at 5% CO2. […] After 24 h of treatment, plates were measured by MTT assay as described above. […]

p21 = p21 expression, western blotting and immunofluorescence, SW480; type: cell-based, human; conditions: 24 h, 1 μM
Experimental: overnight at –20 °C. The pellet containing the nuclei was incubated with a hypertonic solution (10 mM Tris-HCl, 1 mM EDTA and 0.5 M NaCl) and subsequently diluted 1:10 with NP-40 buffer (10 mm Tris-HCl, 1 mm EDTA and 0.5% Triton X-100) containing protease inhibitors (1% PMSF, Sigma, and 1% protease and phosphatase inhibitor cocktail, Roche). After centrifugation (960 g, 5 min), the soluble nuclear (NE) proteins were also transferred into new tubes containing ice-cold ethanol (1 : 5, HPLC grade) and precipitated overnight at –20 °C.
The precipitated proteins were finally pelleted by centrifugation (5000 g, 30 min, 4 °C), the solution was decanted and the pellet dried under vacuum.
Samples were then dissolved in lysis buffer (8 M urea, 20% SDS, 1 M TEAB at pH 7.55) and denatured at 95 °C for 5 min. The protein amount was then quantified using a BCA assay. A total of 20 µg protein per sample was used for processing. Proteins were reduced with 50 µL of DTT (64 mM) and carbamidomethylated with 50 µL of iodoacetamide (486 mM). […]
and allowed to adhere overnight. […] For whole cell lysates, samples were collected, proteins isolated, and Western blotting performed as described in detail previously.5 In brief, protein concentration was determined using the Micro BCA™ Protein Assay Kit (Thermo Fisher Scientific, Waltham, MA, USA). […]

CCC1=C2[O][Ru][O]C2(n2cccn2)c2ccccc2C1=O.Cc1ccc(C(C)C)cc1 (centres unmarked) [Compound 1a, [(3-ethyl-4-oxo-(pyrazolyl)-dihydronaphthalene)(cymene)ruthenium(II)]]
IC50 [1]: 260 ± 10 nM | p21 expression, SW480 (p21): significantly reduced p21 expression
